Experimental data from patent US10183918B2, “Oxa-azaspiro compounds having activity against pain” (LABORATORIOS DEL DR. ESTEVE S.A., priority 2015, dated 2019).

Experiments:
human σ1 receptor = biological target: T1, human σ1 receptor (Homo sapiens, UniProt Q99720); assay: Human σ1 receptor radioligand assay; assay type: binding; conditions: transfected HEK-293 membranes, 5 nM [3H](+)-pentazocine as radioligand
T1 construct: expressed in transfected cells; host or cells: HEK-293 (membranes)
Procedure: Human σ1 Receptor Radioligand Assay
To investigate binding properties of test compounds to human σ1 receptor, transfected HEK-293 membranes and [^3H](+)-pentazocine (Perkin Elmer, NET-1056), as the radioligand, were used. The assay was carried out with 7 μg of membrane suspension, 5 nM of [^3H](+)-pentazocine in either absence or presence of either buffer or 10 μM Haloperidol for total and non-specific binding, respectively. Binding buffer contained Tris-HCl 50 mM at pH 8. Plates were incubated at 37° C. for 120 minutes. After the incubation period, the reaction mix was then transferred to Multiscreen HTS, FC plates (Millipore), filtered and plates were washed 3 times with ice-cold 10 mM Tris-HCL (pH7.4). Filters were dried and counted at approximately 40% efficiency in a MicroBeta scintillation counter (Perkin-Elmer) using EcoScint liquid scintillation cocktail

sigma-2 (σ2) site = sigma-2 (σ2) site (Homo sapiens, UniProt Q5BJF2); conditions: result in words, background; cited from earlier work
Chain of sigma-2 (σ2) site (Q5BJF2 whole entry): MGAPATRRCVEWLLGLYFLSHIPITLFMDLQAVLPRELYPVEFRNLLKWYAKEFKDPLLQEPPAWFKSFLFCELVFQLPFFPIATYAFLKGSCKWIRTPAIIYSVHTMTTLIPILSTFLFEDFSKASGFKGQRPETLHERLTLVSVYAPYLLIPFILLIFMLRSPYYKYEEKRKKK

T1 sequence (Q99720 whole entry): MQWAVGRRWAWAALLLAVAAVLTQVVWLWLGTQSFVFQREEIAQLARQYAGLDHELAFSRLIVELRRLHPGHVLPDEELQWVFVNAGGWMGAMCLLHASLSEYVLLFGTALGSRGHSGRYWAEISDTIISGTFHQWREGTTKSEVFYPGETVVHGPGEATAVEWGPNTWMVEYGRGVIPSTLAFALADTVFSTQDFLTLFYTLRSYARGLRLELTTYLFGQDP

Compound | Ki (human σ1 receptor) | affinity for the sigma-2 (σ2) site (sigma-2 (σ2) site)
CCN1C[C@]2(CC[C@@H](NCc3ccccc3)CC2)OC(C)(C)C1=O [Example 40, (6r,9r)-9-(benzylamino)-4-ethyl-2,2-dimethyl-1-oxa-4-azaspiro[5.5]undecan-3-one] | ≥ 500 nM | 
CCN1C[C@]2(CC[C@H](N(C)Cc3ccccc3)CC2)OCC1=O [Example 41, (6s,9s)-9-(benzyl(methyl)amino)-4-ethyl-1-oxa-4-azaspiro[5.5]undecan-3-one] | < 500 nM | 
CCN1C[C@]2(CC[C@@H](N(C)Cc3ccccc3)CC2)OCC1=O [Example 42, (6r,9r)-9-(benzyl(methyl)amino)-4-ethyl-1-oxa-4-azaspiro[5.5]undecan-3-one] | < 100 nM | 
CCN1C[C@]2(CC[C@H](N(C)Cc3ccccc3)CC2)OC(C)(C)C1=O [Example 43, (6s,9s)-9-(benzyl(methyl)amino)-4-ethyl-2,2-dimethyl-1-oxa-4-azaspiro[5.5]undecan-3-one] | < 100 nM | 
CCN1C[C@]2(CC[C@@H](N(C)Cc3ccccc3)CC2)OC(C)(C)C1=O [Example 44, (6r,9r)-9-(benzyl(methyl)amino)-4-ethyl-2,2-dimethyl-1-oxa-4-azaspiro[5.5]undecan-3-one] | < 500 nM | 
CN(Cc1ccccc1)[C@H]1CC[C@@]2(CC1)CN(C(=O)c1ccccc1)CC1(CC1)O2 [Example 45, ((5s,8s)-8-[Benzyl(methyl)amino]-4-oxa-12-azadispiro[2.1.5.3]tridecan-12-yl)(phenyl)methanone] | < 100 nM | 
CN(Cc1ccccc1)[C@H]1CC[C@]2(CC1)CN(C(=O)c1ccccc1)CC1(CC1)O2 [Example 46, ((5r,8r)-8-[Benzyl(methyl)amino]-4-oxa-12-azadispiro[2.1.5.3]tridecan-12-yl)(phenyl)methanone] | < 500 nM | 
CCN1C[C@]2(CC[C@H](NC)CC2)OCC1=O [Example 47, (6s,9s)-4-ethyl-9-(methylamino)-1-oxa-4-azaspiro[5.5]undecan-3-one acetate] | ≥ 500 nM | 
CCN1C[C@]2(CC[C@H](NC)CC2)OC(C)(C)C1=O [Example 48, (6s,9s)-4-ethyl-2,2-dimethyl-9-(methylamino)-1-oxa-4-azaspiro[5.5]undecan-3-one acetate] | ≥ 500 nM | 
CCN1C[C@]2(CC[C@@H](NC)CC2)OC(C)(C)C1=O [Example 49, (6r,9r)-4-ethyl-2,2-dimethyl-9-(methylamino)-1-oxa-4-azaspiro[5.5]undecan-3-one acetate] | ≥ 500 nM | 
CN[C@H]1CC[C@@]2(CC1)CN(C(=O)c1ccccc1)CC1(CC1)O2 [Example 50, ((5s,8s)-8-(methylamino)-4-oxa-12-azadispiro[2.1.5.3]tridecan-12-yl)(phenyl)methanone acetate] | ≥ 500 nM | 
CCN1C[C@]2(CC[C@H](N(C)CCc3ccccc3)CC2)OCC1=O [Example 51, (6s,9s)-4-ethyl-9-(methyl(phenethyl)amino)-1-oxa-4-azaspiro[5.5]undecan-3-one] | < 500 nM | 
CCN1C[C@]2(CC[C@H](N(C)CCC(C)C)CC2)OCC1=O [Example 52, (6s,9s)-4-ethyl-9-(isopentyl(methyl)amino)-1-oxa-4-azaspiro[5.5]undecan-3-one] | < 500 nM | 
CCN1C[C@]2(CC[C@H](N(C)CCC(C)C)CC2)OC(C)(C)C1=O [Example 53, (6s,9s)-4-ethyl-9-(isopentyl(methyl)amino)-2,2-dimethyl-1-oxa-4-azaspiro[5.5]undecan-3-one] | < 500 nM | 
CCN1C[C@]2(CC[C@H](N(C)CC(C)C)CC2)OC(C)(C)C1=O [Example 54, (6s,9s)-4-ethyl-9-(isobutyl(methyl)amino)-2,2-dimethyl-1-oxa-4-azaspiro[5.5]undecan-3-one] | < 500 nM | 
CCN1C[C@]2(CC[C@H](N(C)CCc3ccccc3)CC2)OC(C)(C)C1=O [Example 55, (6s,9s)-4-ethyl-2,2-dimethyl-9-(methyl(phenethyl)amino)-1-oxa-4-azaspiro[5.5]undecan-3-one] | < 100 nM | 
CCN1C[C@]2(CC[C@@H](N(C)CCc3ccccc3)CC2)OC(C)(C)C1=O [Example 56, (6r,9r)-4-ethyl-2,2-dimethyl-9-(methyl(phenethyl)amino)-1-oxa-4-azaspiro[5.5]undecan-3-one] | < 100 nM | 
CCN1C[C@]2(CC[C@@H](N(C)CCC(C)C)CC2)OC(C)(C)C1=O [Example 57, (6r,9r)-4-ethyl-9-(isopentyl(methyl)amino)-2,2-dimethyl-1-oxa-4-azaspiro[5.5]undecan-3-one] | < 100 nM | 
CN(CCc1ccccc1)[C@H]1CC[C@@]2(CC1)CN(C(=O)c1ccccc1)CC1(CC1)O2 [Example 58, ((5s,8s)-8-[methyl(phenethyl)amino]-4-oxa-12-azadispiro[2.1.5.3]tridecan-12-yl)(phenyl)methanone] | < 500 nM | 
CC(C)CCN(C)[C@H]1CC[C@@]2(CC1)CN(C(=O)c1ccccc1)CC1(CC1)O2 [Example 59, ((5s,8s)-8-[isopentyl(methyl)amino]-4-oxa-12-azadispiro[2.1.5.3]tridecan-12-yl)(phenyl)methanone] | < 500 nM | 
CC(C)CN(C)[C@H]1CC[C@@]2(CC1)CN(C(=O)c1ccccc1)CC1(CC1)O2 [Example 60, ((5s,8s)-8-[isobutyl(methyl)amino]-4-oxa-12-azadispiro[2.1.5.3]tridecan-12-yl)(phenyl)methanone] | < 500 nM | 
CCN1CCO[C@]2(CC[C@@H](N(C)CCc3ccccc3)CC2)C1 [Example 61, (6s,9s)-4-ethyl-N-methyl-N-phenethyl-1-oxa-4-azaspiro[5.5]undecan-9-amine] | < 100 nM | 
CCN1CC(C)(C)O[C@]2(CC[C@@H](N(C)Cc3ccccc3)CC2)C1 [Example 62, (6s,9s)-N-benzyl-4-ethyl-N,2,2-trimethyl-1-oxa-4-azaspiro[5.5]undecan-9-amine] | < 100 nM | 
CCN1CCO[C@]2(CC[C@@H](N(C)CCC(C)C)CC2)C1 [Example 63, (6s,9s)-4-ethyl-N-isopentyl-N-methyl-1-oxa-4-azaspiro[5.5]undecan-9-amine] | < 500 nM | 
CCN1CC(C)(C)O[C@]2(CC[C@@H](N(C)CCC(C)C)CC2)C1 [Example 64, (6s,9s)-4-ethyl-N-isopentyl-N,2,2-trimethyl-1-oxa-4-azaspiro[5.5]undecan-9-amine] | < 100 nM | 
CCN1CC(C)(C)O[C@]2(CC[C@@H](N(C)CC(C)C)CC2)C1 [Example 65, (6s,9s)-4-ethyl-N-isobutyl-N,2,2-trimethyl-1-oxa-4-azaspiro[5.5]undecan-9-amine] | < 100 nM | 
CCN1CC(C)(C)O[C@]2(CC[C@@H](N(C)CCc3ccccc3)CC2)C1 [Example 66, (6s,9s)-4-ethyl-N,2,2-trimethyl-N-phenethyl-1-oxa-4-azaspiro[5.5]undecan-9-amine] | < 100 nM | 
CN(CCc1ccccc1)[C@H]1CC[C@@]2(CC1)CN(Cc1ccccc1)CC1(CC1)O2 [Example 67, (5s,8s)-12-benzyl-N-methyl-N-(2-phenylethyl)-4-oxa-12-azadispiro[2.1.5.3]tridecan-8-amine] | < 100 nM | 
CC(C)CN(C)[C@H]1CC[C@@]2(CC1)CN(Cc1ccccc1)CC1(CC1)O2 [Example 68, (5s,8s)-12-benzyl-N-isobutyl-N-methyl-4-oxa-12-azadispiro[2.1.5.3]tridecan-8-amine] | < 100 nM | 
(+)SKF-10047 |  | micromolar affinity
